Laboratory results from patent US8580813B2, “Cyclic azaindole-3-carboxamides, their preparation and their use as pharmaceuticals” (Sanofi, priority 2008, dated 2013).

These molecules were tested against T1, Recombinant human renin (Homo sapiens, UniProt P00797) (assay: Inhibition of renin (fluorogenic peptide substrate)). Conditions: recombinant human renin 5 nM, substrate 10 μM, 2 h at room temperature, Tris buffer pH 8; compounds tested as the obtained salt.
T1 construct: purchased Cayman 10006217
T1 sequence (P00797 67-406): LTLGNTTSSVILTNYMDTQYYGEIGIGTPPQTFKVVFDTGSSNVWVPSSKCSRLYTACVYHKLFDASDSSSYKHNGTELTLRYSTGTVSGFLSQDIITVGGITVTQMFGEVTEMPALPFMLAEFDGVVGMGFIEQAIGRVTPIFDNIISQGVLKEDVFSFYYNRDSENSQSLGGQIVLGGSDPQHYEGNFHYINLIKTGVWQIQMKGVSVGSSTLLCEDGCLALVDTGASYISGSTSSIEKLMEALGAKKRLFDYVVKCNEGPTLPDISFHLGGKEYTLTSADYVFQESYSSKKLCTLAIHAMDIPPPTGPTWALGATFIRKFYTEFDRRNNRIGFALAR
Type: biochemical
Method: M-2050; […] The increase in fluorescence, which is due to fluorescence resonance energy transfer, was recorded at an excitation wavelength of 330 nm and an emission wavelength of 485 nm in a microplate spectrofluorometer. Inhibitory concentrations IC50 were calculated from the percentage of inhibition of renin activity as a function of the concentration of the test compound. […] Representative IC50 values, which were determined with the compounds in the form of the obtained salt indicated in the examples above, are listed in table 8.

Compound	IC50 [nM]
COC[C@H]1CN(C(=O)c2c(Oc3c(C)cccc3C)n(-c3ccccc3)c3cccnc23)CCN1 [Example 89]	290
COc1cc2c(cn1)c(C(=O)N1CCN[C@@H](C)C1)c(Cc1cccc(F)c1C)n2C1CCCCC1 [Example 113]	320
CC(c1ccccc1)c1c(C(=O)N2CCNCC2)c2ncccc2n1-c1ccccc1 (stereo not shown) [Example 50, [1-Phenyl-2-(1-phenyl-ethyl)-1H-pyrrolo[3,2-b]pyridin-3-yl]-piperazin-1-yl-methanone]	1000
COC(=O)CC1CN(C(=O)c2c(Oc3c(C)cccc3C)n(-c3ccccc3)c3cccnc23)CCN1 (stereo not shown) [Example 58, {4-[2-(2,6-Dimethyl-phenoxy)-1-phenyl-1H-pyrrolo[3,2-b]pyridine-3-carbonyl]-piperazin-2-yl}-acetic acid methyl ester]	57
Cc1ccc(F)cc1Sc1c(C(=O)N2CCN[C@@H](C)C2)c2ncccc2n1-c1ccccc1 [Example 139, [2-(5-Fluoro-2-methyl-phenylsulfanyl)-1-phenyl-1H-pyrrolo[3,2-b]pyridin-3-yl]-((S)-3-methyl-piperazin-1-yl)-methanone]	190
Cc1c(F)cccc1Cc1nccc2c(C(=O)N3CCNCC3)c(Cc3cccc(F)c3C)n(-c3ccccc3)c12 [Example 40, [2,7-Bis-(3-fluoro-2-methyl-benzyl)-1-phenyl-1H-pyrrolo[2,3-c]pyridin-3-yl]-piperazin-1-yl-methanone]	5.1
Cc1c(F)cccc1Cc1c(C(=O)N2CCN[C@@H](CO)C2)c2cnc(O)cc2n1C1CCCCC1 [Example 116]	1100
Cc1cccc(C)c1Oc1c(C(=O)N2CCN[C@@H](CC(C)C)C2)c2ncccc2n1-c1ccccc1 [Example 97]	7000
Cc1cccc(C)c1Oc1c(C(=O)N2CCNCC2Cc2ccccc2)c2ncccc2n1-c1ccccc1 (stereo not shown) [Example 106]	420
Cc1cccc(C)c1Oc1c(C(=O)N2CCNCC2)c2cnc(O)cc2n1C1CCCCC1 [Example 49, [1-Cyclohexyl-2-(2,6-dimethyl-phenoxy)-6-hydroxy-1H-pyrrolo[3,2-c]pyridin-3-yl]-piperazin-1-yl-methanone]	80
CNC(=O)CC1CN(C(=O)c2c(Oc3c(C)cccc3C)n(-c3ccccc3)c3cccnc23)CCN1 (stereo not shown) [Example 59, 2-{4-[2-(2,6-Dimethyl-phenoxy)-1-phenyl-1H-pyrrolo[3,2-b]pyridine-3-carbonyl]-piperazin-2-yl}-N-methyl-acetamide]	70

Results, then the molecule that gave them:

IC50 [nM]	Compound
170	Cc1c(F)cccc1Oc1c(C(=O)N2CCNCC2)c2cccnc2n1-c1ccccc1 [Example 129]
650	Cc1c(F)cc(F)cc1Oc1c(C(=O)N2CCNCC2)c2ncccc2n1-c1ccccc1 [Example 111]
850	COc1cc2c(C(=O)N3CCNCC3)c(Cc3cccc(F)c3C)n(-c3ccccc3)c2cn1 [Example 22, [2-(3-Fluoro-2-methyl-benzyl)-5-methoxy-1-phenyl-1H-pyrrolo[2,3-c]pyridin-3-yl]-piperazin-1-yl-methanone]
320	Cc1ccc(F)cc1Oc1c(C(=O)N2CCNCC2)c2ccnc(Cl)c2n1-c1ccccc1 [Example 38, [7-Chloro-2-(5-fluoro-2-methyl-phenoxy)-1-phenyl-1H-pyrrolo[2,3-c]pyridin-3-yl]-piperazin-1-yl-methanone]
5.6	Cc1c(F)cccc1Cc1c(C(=O)N2CCNCC2)c2cc(O)cnc2n1-c1ccccc1 [Example 31, [2-(3-Fluoro-2-methyl-benzyl)-5-hydroxy-1-phenyl-1H-pyrrolo[2,3-b]pyridin-3-yl]-piperazin-1-yl-methanone]
100	O=C(c1c(Cc2c(F)cccc2Cl)n(-c2ccccc2)c2ccncc12)N1CCNCC1 [Example 13, [2-(2-Chloro-6-fluoro-benzyl)-1-phenyl-1H-pyrrolo[3,2-c]pyridin-3-yl]-piperazin-1-yl-methanone]
77	CCOc1cnc2c(C(=O)N3CCNCC3)c(Oc3c(C)cccc3C)n(-c3ccccc3)c2c1 [Example 54, [2-(2,6-Dimethyl-phenoxy)-6-ethoxy-1-phenyl-1H-pyrrolo[3,2-b]pyridin-3-yl]-piperazin-1-yl-methanone]
86	Cc1c(F)cccc1Cc1c(C(=O)N2CCNCC2)c2cccnc2n1-c1ccccc1 [Example 27, [2-(3-Fluoro-2-methyl-benzyl)-1-phenyl-1H-pyrrolo[2,3-b]pyridin-3-yl]-piperazin-1-yl-methanone]
110	Cc1cccc(C)c1Oc1c(C(=O)N2CCNCC2)c2ncc(OCC(=O)O)cc2n1-c1ccccc1 [Example 57, [2-(2,6-Dimethyl-phenoxy)-1-phenyl-3-(piperazine-1-carbonyl)-1H-pyrrolo[3,2-b]pyridin-6-yloxy]-acetic acid]
1.7	Cc1ccc(F)c(C)c1Oc1c(C(=O)N2CCNCC2)c2ccncc2n1-c1ccccc1 [Example 37, [2-(3-Fluoro-2,6-dimethyl-phenoxy)-1-phenyl-1H-pyrrolo[2,3-c]pyridin-3-yl]-piperazin-1-yl-methanone]
250	Cc1ccccc1Oc1c(C(=O)N2CCNCC2)c2ncccc2n1-c1ccccc1 [Example 1, [1-Phenyl-2-(2-methyl-phenoxy)-1H-pyrrolo[3,2-b]pyridin-3-yl]-piperazin-1-yl-methanone]
1850	CCCc1ccnc2c1c(C(=O)N1CCNCC1)c(Oc1cc(F)ccc1C)n2-c1ccccc1 [Example 133]
3	COc1ccc2c(C(=O)N3CCNCC3)c(Oc3c(C)cccc3C)n(-c3ccccc3)c2n1 [Example 134]
120	Cc1ccccc1Cc1c(C(=O)N2CCNCC2)c2ncccc2n1-c1ccccc1 [Example 3, [2-(2-Methyl-benzyl)-1-phenyl-1H-pyrrolo[3,2-b]pyridin-3-yl]-piperazin-1-yl-methanone]
